The supplement of paper PMC10307832

Legend:
Assay in all cases: relative viability (nuclei count vs DMSO), 5 days (fraction); higher = more cells survive
[1] = compound: COc1nc(N)nc2c1ncn2[C@@H]1O[C@H](CO)[C@@H](O)[C@@H]1O [Nelarabine] + CS(=O)(=O)CCNCc1ccc(-c2ccc3ncnc(Nc4ccc(OCc5cccc(F)c5)c(Cl)c4)c3c2)o1 [Lapatinib] (partner 2 µM)
How it was run: (§1)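 The day after seeding in 1536-well plates, lung cancer cell lines were treated by pin tool with a single drug, or with a fixed anchor-drug dose together with five library-drug doses (not always all listed) in √10 steps. After 5 days, a combined fix-and-stain solution (final 0.05% Triton X-100, 1% formaldehyde, 1 ug/ml Hoechst) was added. Nuclei counted on 4× images gave relative viability as treated counts over vehicle counts, reported as the median of duplicate plates.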

[2] = compound: C=CCn1c(=O)c2cnc(Nc3ccc(N4CCN(C)CC4)cc3)nc2n1-c1cccc(C(C)(C)O)n1 [Adavosertib] + N=C(N)NC(=N)NCCc1ccccc1 [Phenformin] (partner 250 µM)
How it was run: as §1

[3] = compound: COc1nc(N)nc2c1ncn2[C@@H]1O[C@H](CO)[C@@H](O)[C@@H]1O [Nelarabine] + O=C(CCCCCCC(=O)Nc1ccccc1)NO [Vorinostat] (partner 1 µM)
How it was run: as §1

[4] = compound: C=CCn1c(=O)c2cnc(Nc3ccc(N4CCN(C)CC4)cc3)nc2n1-c1cccc(C(C)(C)O)n1 [Adavosertib] + O=C(CCCCCCC(=O)Nc1ccccc1)NO [Vorinostat] (partner 1 µM)
How it was run: as §1

Cell Line	relative viability ([1]; first compound 0.01 µM)	relative viability ([1]; first compound 0.03162 µM)	relative viability ([1]; first compound 0.1 µM)	relative viability ([1]; first compound 0.3162 µM)	relative viability ([1]; first compound 1 µM)	relative viability ([2]; first compound 0.01 µM)	relative viability ([2]; first compound 0.03162 µM)	relative viability ([2]; first compound 0.1 µM)	relative viability ([2]; first compound 0.3162 µM)	relative viability ([3]; first compound 0.01 µM)	relative viability ([3]; first compound 0.03162 µM)	relative viability ([3]; first compound 0.1 µM)	relative viability ([3]; first compound 0.3162 µM)	relative viability ([3]; first compound 1 µM)	relative viability ([4]; first compound 0.01 µM)	relative viability ([4]; first compound 0.03162 µM)	relative viability ([4]; first compound 0.1 µM)	relative viability ([4]; first compound 0.3162 µM)
NCI-H1915	1.19	0.867	1.01	1.09	0.997	0.364	0.367	0.388	0.365	0.599	0.544	0.488	0.573	0.57	0.552	0.521	0.53	0.373
ABC-1	1.44	0.952	1.23	1.1	1.37	0.228	0.237	0.208	0.222	1.24	1.51	1.22	1.07	0.929	1.17	1.26	1.1	1.44
NCI-H358	0.518	0.436	0.421	0.405	0.431	0.288	0.295	0.322	0.24	0.852	1.02	0.663	0.791	0.617	0.622	0.597	0.637	0.219
HCC-366	1.46	0.952	1.23	1.2	1.17	0.622	0.678	0.626	0.674	0.582	0.343	0.391	0.47	0.339	0.353	0.411	0.319	0.219
EBC-1	0.177	0.205	0.188	0.215	0.197													
NCI-H1650	0.882	0.834	0.783	0.831	0.826	0.361	0.392	0.445	0.205	0.61	0.53	0.524	0.549	0.681	0.63	0.731	0.485	0.389
NCI-H1395	0.959	1.1	1.23	0.971	1.5	0.435	0.429	0.421	0.471	0.757	0.706	1.16	0.755	0.666	0.595	0.759	0.619	0.504
SW 900							0.75	0.564	0.387	0.471	0.567	0.795	0.628	0.448	0.445	0.492	0.424	0.268
NCI-H1666	0.711	0.604	0.57	0.675	0.646	0.549	0.562	0.636	0.594	1.03	1.03	1.18	1.09	0.964	1.06	0.865	0.935	1.01
COR-L23	1.39	1.17	1.12	1.02	0.982	0.433	0.465	0.442	0.267	0.471	0.416	0.511	0.427	0.456	0.486	0.406	0.386	0.166
ChaGo-K-1						0.469	0.506	0.484	0.457	0.972	0.645	0.723	0.741	0.771	0.747	0.74	0.779	0.741
SW 1573	1.14	1.13	1.11	1.18	1.2	0.384	0.564	0.408	0.324	1.05	0.81	0.806	0.628	0.776	0.807	0.687	0.904	0.758
NCI-H23	1.5	1.1	1.06	1.17	1.18	0.732	0.759	0.838	0.585	0.737	0.604	0.548	0.615	0.584	0.627	0.469	0.401	0.185
NCI-H1299	1	0.999	1.02	0.98	1													
NCI-H1944	0.895	0.782	0.841	0.799	0.845	0.23	0.202	0.19	0.206	0.669	0.549	0.54	0.559	0.538	0.541	0.531	0.563	0.369
PC-3 [JPC-3]	0.508	0.373	0.439	0.451	0.436	0.458	0.46	0.498	0.488	0.927	0.924	0.918	0.957	0.709		0.756	0.621	0.753
NCI-H2126	0.91	0.763	0.72	0.754	0.797	0.525	0.538	0.531	0.568	0.945	0.803	0.689	0.691	0.816	0.738	0.759	0.781	0.789
HCC-827	0.196	0.205	0.169	0.179	0.194	0.391	0.434	0.46	0.387	0.595	0.748	0.639	0.721	0.64	0.716	0.868	0.873	0.885
H3255	0.248	0.267	0.226	0.235	0.201	0.351	0.369	0.363	0.336	0.904	0.786	0.777	0.961	0.8	0.763	0.908	0.828	1

Cell Line	relative viability ([1]; first compound 0.01 µM)	relative viability ([1]; first compound 0.03162 µM)	relative viability ([1]; first compound 0.1 µM)	relative viability ([1]; first compound 0.3162 µM)	relative viability ([1]; first compound 1 µM)	relative viability ([2]; first compound 0.01 µM)	relative viability ([2]; first compound 0.03162 µM)	relative viability ([2]; first compound 0.1 µM)	relative viability ([2]; first compound 0.3162 µM)	relative viability ([3]; first compound 0.01 µM)	relative viability ([3]; first compound 0.03162 µM)	relative viability ([3]; first compound 0.1 µM)	relative viability ([3]; first compound 0.3162 µM)	relative viability ([3]; first compound 1 µM)	relative viability ([4]; first compound 0.01 µM)	relative viability ([4]; first compound 0.03162 µM)	relative viability ([4]; first compound 0.1 µM)	relative viability ([4]; first compound 0.3162 µM)
NCI-H838	1.38	1.07	0.934	1.16	1.14	0.57	0.502	0.525	0.655	0.861	0.79	0.759	0.755	0.73	0.706	0.694	0.701	0.67
NCI-H1734	1.23	1.22	1.09	1.08	1.06	0.411	0.367	0.374	0.264	0.839	0.704	0.772	0.766	0.892	0.923	0.865	0.622	0.33
HCC-44	1.08	1.07	1.14	1.03	1.02	0.255	0.237	0.192	0.181	1.11	1.02	1.05	1.01	1.07	1.09	1.06	1.09	1.07
HOP-62	1.35	1.08	1.18	1.11	1	0.698	0.621	0.802	0.769	0.783	0.618	0.669	0.708	0.638	0.689	0.653	0.733	0.62
NCI-H3122	1.08	0.891		1.08	1.01	0.365	0.402	0.355	0.365	1.38	0.833		1.17	1.02	0.991	0.942	0.857	0.992
NCI-H2405	1.14	1.13	0.904	1.06	1.04	0.458	0.414	0.405	0.396	1.2	0.988	1.05	1.03	0.886		0.882	0.965	0.895
IA-LM	1.01	0.74	0.829	0.9	0.932					1.11	1	0.854	1.11	0.884		0.904	1.07	1.12
NCI-H1792	0.913		1.45	1.03	0.967	0.27	0.217		0.259									
NCI-H1703	1.65	1.33	1.42	1.05	1.11													
Calu-6	1.29	1.04	1.08	1.18	1.14													
NCI-H1648											0.761		0.412	0.642	0.498	0.407	0.419	0.532
NCI-H1623						0.553	0.629	0.563	0.652									
NCI-H1563	0.944	1.02	0.985	0.998	1.03	0.692	0.603	0.667	0.642									
NCI-H522						0.679	0.57	0.691	0.676	1.02	0.857	0.683	0.867	0.934	0.875	0.968	1.02	0.871
LCLC-103H						0.347	0.372	0.319	0.3	0.905	0.76	0.795	0.856	0.808	0.834	0.78	0.755	0.739
NCI-H2342						0.569	0.587	0.571	0.572	0.933	0.753	0.806	0.74	0.728	0.679	0.833	0.741	0.864
A549	1.13	1.09	0.926	0.896	0.921	0.218	0.229	0.14	0.173									
NCI-H441						0.876	0.78	1.09	0.765	0.749	0.814	1.02	0.886	0.793	0.848	0.829	0.881	0.72
